Where “and” joins values, the source holds several entries; their conditions need not be identical. Identical values can stand only once. Toxic doses and inconclusive results are not listed.
Test system: L1210 leukemia ip in BDF1 mice, survival T/C
Experiment: NCI In Vivo Anticancer Drug Screen. Data for tumor model L1210 Leukemia (intraperitoneal) in B6D2F1 (BDF1) mice
Conditions: higher = longer survival
How it was run: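 Ratio derived from survival: compound-dosed mice over vehicle-dosed mice, all bearing a transplantable tumor.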

[1] = endpoint: mean survival time, dose: 100.0 mg/kg/injection, schedule: Q01DX009 (ip), vehicle: Klucel (hydroxypropylcellulose) (HPC)
[2] = endpoint: mean survival time, dose: 200.0 mg/kg/injection, schedule: Q01DX009 (ip), vehicle: Klucel (hydroxypropylcellulose) (HPC)
[3] = endpoint: mean survival time, dose: 400.0 mg/kg/injection, schedule: Q01DX009 (ip), vehicle: Klucel (hydroxypropylcellulose) (HPC)
[4] = endpoint: mean survival time, dose: 100.0 mg/kg/injection, schedule: Q01DX001 (ip), vehicle: saline
[5] = endpoint: mean survival time, dose: 200.0 mg/kg/injection, schedule: Q01DX001 (ip), vehicle: saline
[6] = endpoint: mean survival time, dose: 400.0 mg/kg/injection, schedule: Q01DX001 (ip), vehicle: saline
[7] = endpoint: mean survival time, dose: 100.0 mg/kg/injection, schedule: Q04DX002 (ip), vehicle: Klucel (hydroxypropylcellulose) (HPC)
[8] = endpoint: mean survival time, dose: 200.0 mg/kg/injection, schedule: Q04DX002 (ip), vehicle: Klucel (hydroxypropylcellulose) (HPC)
[9] = endpoint: mean survival time, dose: 100.0 mg/kg/injection, schedule: Q04DX003 (ip), vehicle: Klucel (hydroxypropylcellulose) (HPC)
[10] = endpoint: mean survival time, dose: 200.0 mg/kg/injection, schedule: Q04DX003 (ip), vehicle: Klucel (hydroxypropylcellulose) (HPC)
[11] = endpoint: mean survival time, dose: 400.0 mg/kg/injection, schedule: Q04DX003 (ip), vehicle: Klucel (hydroxypropylcellulose) (HPC)
[12] = endpoint: mean survival time, dose: 50.0 mg/kg/injection, schedule: Q01DX001 (ip), vehicle: Klucel (hydroxypropylcellulose) (HPC)
[13] = endpoint: mean survival time, dose: 100.0 mg/kg/injection, schedule: Q01DX001 (ip), vehicle: Klucel (hydroxypropylcellulose) (HPC)
[14] = endpoint: mean survival time, dose: 200.0 mg/kg/injection, schedule: Q01DX001 (ip), vehicle: Klucel (hydroxypropylcellulose) (HPC)
[15] = endpoint: mean survival time, dose: 6.25 mg/kg/injection, schedule: Q01DX009 (ip), vehicle: Klucel (hydroxypropylcellulose) (HPC)
[16] = endpoint: mean survival time, dose: 12.5 mg/kg/injection, schedule: Q01DX009 (ip), vehicle: Klucel (hydroxypropylcellulose) (HPC)
[17] = endpoint: mean survival time, dose: 400.0 mg/kg/injection, schedule: Q04DX002 (ip), vehicle: Klucel (hydroxypropylcellulose) (HPC)

CCCCCCCCCCCC[n+]1ccc2ccccc2c1
T/C (endpoint: mean survival time, dose: 0.05 mg/kg/injection, schedule: Q01DX001 (ip), vehicle: saline): 97 % of control | T/C (endpoint: mean survival time, dose: 0.1 mg/kg/injection, schedule: Q01DX001 (ip), vehicle: saline): 105 % of control | T/C (endpoint: mean survival time, dose: 0.2 mg/kg/injection, schedule: Q01DX001 (ip), vehicle: saline): 100 % of control | T/C (endpoint: mean survival time, dose: 0.4 mg/kg/injection, schedule: Q01DX001 (ip), vehicle: saline): 102 % of control | T/C (endpoint: mean survival time, dose: 0.5 mg/kg/injection, schedule: Q01DX001 (ip), vehicle: saline): 106 % of control | T/C (endpoint: mean survival time, dose: 0.8 mg/kg/injection, schedule: Q01DX001 (ip), vehicle: saline): 100 % of control | T/C (endpoint: mean survival time, dose: 1.0 mg/kg/injection, schedule: Q01DX001 (ip), vehicle: saline): 104 % of control | T/C (endpoint: mean survival time, dose: 2.0 mg/kg/injection, schedule: Q01DX001 (ip), vehicle: carboxymethylcellulose (CMC)): 109 % of control | T/C (endpoint: mean survival time, dose: 2.0 mg/kg/injection, schedule: Q01DX001 (ip), vehicle: saline): 104 % of control | T/C (endpoint: mean survival time, dose: 4.0 mg/kg/injection, schedule: Q01DX001 (ip), vehicle: carboxymethylcellulose (CMC)): 96 % of control and 97 % of control | T/C (endpoint: mean survival time, dose: 4.0 mg/kg/injection, schedule: Q01DX001 (ip), vehicle: saline): 103 % of control | T/C (endpoint: mean survival time, dose: 8.0 mg/kg/injection, schedule: Q01DX001 (ip), vehicle: carboxymethylcellulose (CMC)): 90 % of control and 91 % of control | T/C (endpoint: mean survival time, dose: 8.0 mg/kg/injection, schedule: Q01DX001 (ip), vehicle: saline): 96 % of control | T/C (endpoint: mean survival time, dose: 16.0 mg/kg/injection, schedule: Q01DX001 (ip), vehicle: carboxymethylcellulose (CMC)): 102 % of control | T/C (endpoint: mean survival time, dose: 8.0 micrograms/kg/injection, schedule: Q01DX015 (ip), vehicle: saline): 88 % of control | T/C (endpoint: mean survival time, dose: 16.0 micrograms/kg/injection, schedule: Q01DX015 (ip), vehicle: saline): 92 % of control | T/C (endpoint: mean survival time, dose: 32.0 micrograms/kg/injection, schedule: Q01DX015 (ip), vehicle: saline): 96 % of control | T/C (endpoint: mean survival time, dose: 64.0 micrograms/kg/injection, schedule: Q01DX015 (ip), vehicle: saline): 91 % of control

NC(N)=NC(CC(=O)O)C(=O)O (stereo unspecified)
T/C (endpoint: mean survival time, dose: 100.0 mg/kg/injection, schedule: Q01DX Z (ip), vehicle: methylcellulose (MC)): 92 % of control | T/C (endpoint: mean survival time, dose: 200.0 mg/kg/injection, schedule: Q01DX Z (ip), vehicle: methylcellulose (MC)): 92 % of control

C=C(CCCCCCCCCCCCCCCC)C(=O)O
T/C (endpoint: mean survival time, dose: 100.0 mg/kg/injection, schedule: Q04DX002 (ip), vehicle: saline with Tween-80): 91 % of control | T/C (endpoint: mean survival time, dose: 400.0 mg/kg/injection, schedule: Q04DX002 (ip), vehicle: saline with Tween-80): 88 % of control

CCCCCCNC(=O)Nc1ccccc1Cl
T/C [1]: 97 % of control | T/C [2]: 100 % of control | T/C [3]: 105 % of control

C/C(=C\Cn1cc([N+](=O)[O-])ccc1=O)CCC(=O)O
T/C (endpoint: mean survival time, dose: 100.0 mg/kg/injection, schedule: Q01DX009 (ip), vehicle: water): 108 % of control | T/C (endpoint: mean survival time, dose: 100.0 mg/kg/injection, schedule: Q04DX003 (ip), vehicle: other): 102 % of control | T/C (endpoint: mean survival time, dose: 200.0 mg/kg/injection, schedule: Q01DX009 (ip), vehicle: water): 96 % of control | T/C (endpoint: mean survival time, dose: 200.0 mg/kg/injection, schedule: Q04DX003 (ip), vehicle: other): 98 % of control | T/C (endpoint: mean survival time, dose: 400.0 mg/kg/injection, schedule: Q01DX009 (ip), vehicle: water): 97 % of control | T/C (endpoint: mean survival time, dose: 400.0 mg/kg/injection, schedule: Q04DX003 (ip), vehicle: other): 102 % of control

O=C(/C=C\c1ccc(/C=C\C(=O)c2ccccc2O)cc1)c1ccccc1O
T/C (endpoint: mean survival time, dose: 50.0 mg/kg/injection, schedule: Q01DX001 (ip), vehicle: saline): 97 % of control | T/C [4]: 97 % of control | T/C [5]: 97 % of control | T/C [6]: 103 % of control

CC1(C)N=C(N)N=C(N)N1NC(=O)c1ccc(F)cc1
T/C (endpoint: mean survival time, dose: 100.0 mg/kg/injection, schedule: Q01DX009 (ip), vehicle: saline): 102 % of control | T/C (endpoint: mean survival time, dose: 200.0 mg/kg/injection, schedule: Q01DX009 (ip), vehicle: saline): 96 % of control

CC(O)c1cccc(NC(=O)Nc2ccc(Cl)c(Cl)c2)c1 (stereo unspecified)
T/C [1]: 96 % of control | T/C [2]: 98 % of control | T/C [3]: 96 % of control

CC1CCCCN1C(=O)c1ccccc1C(=O)O (stereo unspecified)
T/C [7]: 104 % of control | T/C [8]: 111 % of control

COc1cccc(CNc2ccc(C)cc2C)c1OC
T/C [1]: 100 % of control | T/C [9]: 92 % of control | T/C [2]: 107 % of control | T/C [10]: 91 % of control | T/C [3]: 109 % of control | T/C [11]: 97 % of control

CC(=O)N(/C=C/C=C/C=C1\C(=O)N(c2ccc(S(=O)(=O)O)cc2)N=C1C)c1ccccc1
T/C [4]: 99 % of control | T/C [5]: 98 % of control | T/C [6]: 88 % of control

O=P1(NCCCl)OCCC(OO)N1CCCl (stereo unspecified)
T/C (endpoint: mean survival time, dose: 15.0 mg/kg/injection, schedule: Q01DX001 (ip), vehicle: Klucel (hydroxypropylcellulose) (HPC)): 155 % of control | T/C (endpoint: mean survival time, dose: 23.0 mg/kg/injection, schedule: Q01DX001 (ip), vehicle: Klucel (hydroxypropylcellulose) (HPC)): 158 % of control | T/C (endpoint: mean survival time, dose: 34.0 mg/kg/injection, schedule: Q01DX001 (ip), vehicle: Klucel (hydroxypropylcellulose) (HPC)): 175 % of control | T/C [12]: 188 % of control and 196 % of control | T/C (endpoint: mean survival time, dose: 75.0 mg/kg/injection, schedule: Q01DX001 (ip), vehicle: Klucel (hydroxypropylcellulose) (HPC)): 276 % of control | T/C [13]: 182 % of control | T/C [14]: 196 % of control | T/C (endpoint: mean survival time, dose: 400.0 mg/kg/injection, schedule: Q01DX001 (ip), vehicle: Klucel (hydroxypropylcellulose) (HPC)): 95 % of control

O=C(Nc1ccc(C2=NCCS2)cc1)c1ccc(C(=O)Nc2ccc(C3=NCCS3)cc2)cc1
T/C (endpoint: mean survival time, dose: 15.0 mg/kg/injection, schedule: Q01DX Z (ip), vehicle: carboxymethylcellulose (CMC)): 98 % of control | T/C (endpoint: mean survival time, dose: 30.0 mg/kg/injection, schedule: Q01DX Z (ip), vehicle: carboxymethylcellulose (CMC)): 96 % of control | T/C (endpoint: mean survival time, dose: 60.0 mg/kg/injection, schedule: Q01DX Z (ip), vehicle: carboxymethylcellulose (CMC)): 95 % of control | T/C (endpoint: mean survival time, dose: 120.0 mg/kg/injection, schedule: Q01DX Z (ip), vehicle: carboxymethylcellulose (CMC)): 96 % of control | T/C (endpoint: mean survival time, dose: 125.0 mg/kg/injection, schedule: Q01DX Z (ip), vehicle: water): 98 % of control

O=C(Nc1ccc(Nc2ccccc2)cc1)Nc1ccccc1Cl
T/C [1]: 90 % of control | T/C [9]: 95 % of control | T/C [2]: 90 % of control | T/C [10]: 92 % of control | T/C [3]: 92 % of control | T/C [11]: 90 % of control

CC1CN1C1=C(Cl)C(=O)C(N2CC2C)=C(Cl)C1=O (stereo unspecified)
T/C (endpoint: mean survival time, dose: 0.78 mg/kg/injection, schedule: Q01DX009 (ip), vehicle: Klucel (hydroxypropylcellulose) (HPC)): 104 % of control | T/C (endpoint: mean survival time, dose: 1.56 mg/kg/injection, schedule: Q01DX009 (ip), vehicle: Klucel (hydroxypropylcellulose) (HPC)): 105 % of control | T/C (endpoint: mean survival time, dose: 3.12 mg/kg/injection, schedule: Q01DX009 (ip), vehicle: Klucel (hydroxypropylcellulose) (HPC)): 102 % of control | T/C [15]: 96 % of control | T/C [16]: 107 % of control

CCC[CH2][Sn]([CH2]CCC)([O][Sn]([CH2]CCC)([CH2]CCC)[S]C#N)[S]C#N
T/C [15]: 95 % of control | T/C [16]: 97 % of control | T/C (endpoint: mean survival time, dose: 25.0 mg/kg/injection, schedule: Q01DX009 (ip), vehicle: Klucel (hydroxypropylcellulose) (HPC)): 89 % of control

O=C(Nc1ccc(F)cc1)C(Cl)(Cl)Cl
T/C [7]: 102 % of control | T/C [8]: 94 % of control | T/C [17]: 94 % of control

O=NN(Cc1ccc(Cl)cc1)Nc1ncc[nH]1
T/C [7]: 101 % of control | T/C [8]: 96 % of control | T/C [17]: 93 % of control

CCOC(=O)c1nc(N)nc(N)c1Oc1ccccc1
T/C [12]: 92 % of control | T/C [13]: 93 % of control | T/C [14]: 92 % of control

CC(=O)OC1CCC2(C)C(CCC3C4CCC(=O)OC4(C)CC(=O)C32)C1 (stereo unspecified)
T/C (endpoint: mean survival time, dose: 100.0 mg/kg/injection, schedule: Q04DX003 (sc), vehicle: steriod suspending solution): 104 % of control | T/C (endpoint: mean survival time, dose: 200.0 mg/kg/injection, schedule: Q04DX003 (sc), vehicle: steriod suspending solution): 100 % of control | T/C (endpoint: mean survival time, dose: 400.0 mg/kg/injection, schedule: Q04DX003 (sc), vehicle: steriod suspending solution): 97 % of control

CCOC(=O)c1[nH]c(C)nc1/N=N/N(C)C
T/C (endpoint: median survival time, dose: 25.0 mg/kg/injection, schedule: Q01DX009 (ip), vehicle: Klucel (hydroxypropylcellulose) (HPC)): 116 % of control
